Measured values as given in article PMC4979471 (Cell Death Discovery, 2015).
Where two headings read alike, the source gives them in different places.

Assays:
Assay in all cases: Kinase selectivity, P33-radiolabeled assay
Format in all cases: biochemical
Conditions in all cases: 10 μM ATP
ARAF = target: T1, ARAF (Homo sapiens, UniProt P10398)
T1 construct: purchased Reaction Biology Corp
T1 sequence (P10398 1-606): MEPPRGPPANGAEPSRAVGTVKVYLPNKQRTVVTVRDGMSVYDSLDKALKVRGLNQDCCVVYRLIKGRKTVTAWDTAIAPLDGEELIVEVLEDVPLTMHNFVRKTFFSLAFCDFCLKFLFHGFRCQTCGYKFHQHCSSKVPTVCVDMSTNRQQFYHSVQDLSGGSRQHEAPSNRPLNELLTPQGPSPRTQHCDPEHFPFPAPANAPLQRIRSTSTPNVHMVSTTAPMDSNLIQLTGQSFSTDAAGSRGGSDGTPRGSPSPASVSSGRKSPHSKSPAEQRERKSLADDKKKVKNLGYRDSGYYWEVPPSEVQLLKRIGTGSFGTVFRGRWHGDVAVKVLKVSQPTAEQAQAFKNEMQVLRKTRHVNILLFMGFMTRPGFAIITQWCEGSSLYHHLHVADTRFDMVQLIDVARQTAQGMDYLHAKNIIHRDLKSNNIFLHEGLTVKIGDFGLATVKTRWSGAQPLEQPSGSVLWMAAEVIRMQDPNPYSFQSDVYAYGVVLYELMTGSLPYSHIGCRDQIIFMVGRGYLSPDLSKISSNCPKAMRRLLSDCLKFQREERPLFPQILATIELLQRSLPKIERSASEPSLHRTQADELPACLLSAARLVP
Method in brief: (§1)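 Each enzyme was exposed to 10 μM compound, with duplicate measurements, in reactions containing 10 μM ATP. Numbers are remaining activity as a percent of the vehicle (DMSO) signal.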

Aurora C = target: T2, Aurora C (Homo sapiens, UniProt Q9UQB9)
T2 construct: purchased Reaction Biology Corp
T2 sequence (Q9UQB9 1-309): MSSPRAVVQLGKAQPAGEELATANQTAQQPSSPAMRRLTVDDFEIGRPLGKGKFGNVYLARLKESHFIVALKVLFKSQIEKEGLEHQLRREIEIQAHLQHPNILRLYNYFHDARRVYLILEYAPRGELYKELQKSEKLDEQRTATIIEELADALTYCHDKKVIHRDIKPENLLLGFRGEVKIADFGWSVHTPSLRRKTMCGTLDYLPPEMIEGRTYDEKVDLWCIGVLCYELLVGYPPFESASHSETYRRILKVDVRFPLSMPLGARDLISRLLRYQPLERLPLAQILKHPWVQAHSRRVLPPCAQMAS
Method in brief: as §1

CDK9/cyclin T1 = target: T3, CDK9/cyclin T1 (Homo sapiens, UniProt P50750)
T3 construct: purchased Reaction Biology Corp
Method in brief: as §1

CK1a1 = target: T4, CK1a1 (Homo sapiens, UniProt P48729)
T4 construct: purchased Reaction Biology Corp
Method in brief: as §1

DCAMKL1 = target: T5, DCAMKL1 (Homo sapiens, UniProt O15075)
T5 construct: purchased Reaction Biology Corp
T5 sequence (O15075 1-740): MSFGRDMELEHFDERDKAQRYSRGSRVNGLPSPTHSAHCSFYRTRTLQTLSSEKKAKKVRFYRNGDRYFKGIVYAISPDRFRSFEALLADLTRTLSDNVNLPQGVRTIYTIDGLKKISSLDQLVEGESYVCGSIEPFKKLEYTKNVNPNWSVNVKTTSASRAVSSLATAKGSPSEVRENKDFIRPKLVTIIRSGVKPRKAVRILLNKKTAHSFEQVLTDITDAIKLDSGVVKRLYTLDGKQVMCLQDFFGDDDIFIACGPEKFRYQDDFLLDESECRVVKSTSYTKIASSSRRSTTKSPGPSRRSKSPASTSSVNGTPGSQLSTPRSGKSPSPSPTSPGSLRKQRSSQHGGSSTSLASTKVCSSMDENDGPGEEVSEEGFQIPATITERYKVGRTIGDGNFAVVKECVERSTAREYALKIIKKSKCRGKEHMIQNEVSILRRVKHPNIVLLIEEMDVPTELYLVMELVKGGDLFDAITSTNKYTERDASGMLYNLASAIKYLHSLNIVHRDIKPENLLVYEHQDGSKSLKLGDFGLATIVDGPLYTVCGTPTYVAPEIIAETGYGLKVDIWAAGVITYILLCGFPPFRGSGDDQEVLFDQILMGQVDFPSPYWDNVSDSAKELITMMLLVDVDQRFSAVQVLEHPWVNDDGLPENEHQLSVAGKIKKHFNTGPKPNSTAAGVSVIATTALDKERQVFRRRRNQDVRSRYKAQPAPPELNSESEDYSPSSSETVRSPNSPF
Method in brief: as §1

GRK6 = target: T6, GRK6 (Homo sapiens, UniProt P43250)
T6 construct: purchased Reaction Biology Corp
Method in brief: as §1

LRRK2 = target: T7, LRRK2 (Homo sapiens, UniProt Q5S007)
T7 construct: purchased Reaction Biology Corp
Method in brief: as §1

TSSK3/STK22C = target: T8, TSSK3/STK22C (Homo sapiens, UniProt Q96PN8)
T8 construct: purchased Reaction Biology Corp
T8 sequence (Q96PN8 1-268): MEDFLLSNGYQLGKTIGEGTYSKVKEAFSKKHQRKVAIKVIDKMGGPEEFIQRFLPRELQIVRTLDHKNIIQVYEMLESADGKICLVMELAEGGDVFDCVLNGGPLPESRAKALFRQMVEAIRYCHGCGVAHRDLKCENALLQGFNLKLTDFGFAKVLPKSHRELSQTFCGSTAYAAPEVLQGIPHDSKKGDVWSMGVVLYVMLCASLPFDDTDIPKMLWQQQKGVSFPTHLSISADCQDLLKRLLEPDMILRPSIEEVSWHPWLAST
Method in brief: as §1

WEE1 = target: T9, WEE1 (Homo sapiens, UniProt P30291)
T9 construct: purchased Reaction Biology Corp
Method in brief: as §1

WNK3 = target: T10, WNK3 (Homo sapiens, UniProt Q9BYP7)
T10 construct: purchased Reaction Biology Corp
Method in brief: as §1

[1] = read-out: % Enzyme Activity (relative to DMSO controls) AVG
[2] = read-out: % Enzyme Activity (relative to DMSO controls) Data 1
[3] = read-out: % Enzyme Activity (relative to DMSO controls) Data 2

T7 sequence (Q5S007 whole entry): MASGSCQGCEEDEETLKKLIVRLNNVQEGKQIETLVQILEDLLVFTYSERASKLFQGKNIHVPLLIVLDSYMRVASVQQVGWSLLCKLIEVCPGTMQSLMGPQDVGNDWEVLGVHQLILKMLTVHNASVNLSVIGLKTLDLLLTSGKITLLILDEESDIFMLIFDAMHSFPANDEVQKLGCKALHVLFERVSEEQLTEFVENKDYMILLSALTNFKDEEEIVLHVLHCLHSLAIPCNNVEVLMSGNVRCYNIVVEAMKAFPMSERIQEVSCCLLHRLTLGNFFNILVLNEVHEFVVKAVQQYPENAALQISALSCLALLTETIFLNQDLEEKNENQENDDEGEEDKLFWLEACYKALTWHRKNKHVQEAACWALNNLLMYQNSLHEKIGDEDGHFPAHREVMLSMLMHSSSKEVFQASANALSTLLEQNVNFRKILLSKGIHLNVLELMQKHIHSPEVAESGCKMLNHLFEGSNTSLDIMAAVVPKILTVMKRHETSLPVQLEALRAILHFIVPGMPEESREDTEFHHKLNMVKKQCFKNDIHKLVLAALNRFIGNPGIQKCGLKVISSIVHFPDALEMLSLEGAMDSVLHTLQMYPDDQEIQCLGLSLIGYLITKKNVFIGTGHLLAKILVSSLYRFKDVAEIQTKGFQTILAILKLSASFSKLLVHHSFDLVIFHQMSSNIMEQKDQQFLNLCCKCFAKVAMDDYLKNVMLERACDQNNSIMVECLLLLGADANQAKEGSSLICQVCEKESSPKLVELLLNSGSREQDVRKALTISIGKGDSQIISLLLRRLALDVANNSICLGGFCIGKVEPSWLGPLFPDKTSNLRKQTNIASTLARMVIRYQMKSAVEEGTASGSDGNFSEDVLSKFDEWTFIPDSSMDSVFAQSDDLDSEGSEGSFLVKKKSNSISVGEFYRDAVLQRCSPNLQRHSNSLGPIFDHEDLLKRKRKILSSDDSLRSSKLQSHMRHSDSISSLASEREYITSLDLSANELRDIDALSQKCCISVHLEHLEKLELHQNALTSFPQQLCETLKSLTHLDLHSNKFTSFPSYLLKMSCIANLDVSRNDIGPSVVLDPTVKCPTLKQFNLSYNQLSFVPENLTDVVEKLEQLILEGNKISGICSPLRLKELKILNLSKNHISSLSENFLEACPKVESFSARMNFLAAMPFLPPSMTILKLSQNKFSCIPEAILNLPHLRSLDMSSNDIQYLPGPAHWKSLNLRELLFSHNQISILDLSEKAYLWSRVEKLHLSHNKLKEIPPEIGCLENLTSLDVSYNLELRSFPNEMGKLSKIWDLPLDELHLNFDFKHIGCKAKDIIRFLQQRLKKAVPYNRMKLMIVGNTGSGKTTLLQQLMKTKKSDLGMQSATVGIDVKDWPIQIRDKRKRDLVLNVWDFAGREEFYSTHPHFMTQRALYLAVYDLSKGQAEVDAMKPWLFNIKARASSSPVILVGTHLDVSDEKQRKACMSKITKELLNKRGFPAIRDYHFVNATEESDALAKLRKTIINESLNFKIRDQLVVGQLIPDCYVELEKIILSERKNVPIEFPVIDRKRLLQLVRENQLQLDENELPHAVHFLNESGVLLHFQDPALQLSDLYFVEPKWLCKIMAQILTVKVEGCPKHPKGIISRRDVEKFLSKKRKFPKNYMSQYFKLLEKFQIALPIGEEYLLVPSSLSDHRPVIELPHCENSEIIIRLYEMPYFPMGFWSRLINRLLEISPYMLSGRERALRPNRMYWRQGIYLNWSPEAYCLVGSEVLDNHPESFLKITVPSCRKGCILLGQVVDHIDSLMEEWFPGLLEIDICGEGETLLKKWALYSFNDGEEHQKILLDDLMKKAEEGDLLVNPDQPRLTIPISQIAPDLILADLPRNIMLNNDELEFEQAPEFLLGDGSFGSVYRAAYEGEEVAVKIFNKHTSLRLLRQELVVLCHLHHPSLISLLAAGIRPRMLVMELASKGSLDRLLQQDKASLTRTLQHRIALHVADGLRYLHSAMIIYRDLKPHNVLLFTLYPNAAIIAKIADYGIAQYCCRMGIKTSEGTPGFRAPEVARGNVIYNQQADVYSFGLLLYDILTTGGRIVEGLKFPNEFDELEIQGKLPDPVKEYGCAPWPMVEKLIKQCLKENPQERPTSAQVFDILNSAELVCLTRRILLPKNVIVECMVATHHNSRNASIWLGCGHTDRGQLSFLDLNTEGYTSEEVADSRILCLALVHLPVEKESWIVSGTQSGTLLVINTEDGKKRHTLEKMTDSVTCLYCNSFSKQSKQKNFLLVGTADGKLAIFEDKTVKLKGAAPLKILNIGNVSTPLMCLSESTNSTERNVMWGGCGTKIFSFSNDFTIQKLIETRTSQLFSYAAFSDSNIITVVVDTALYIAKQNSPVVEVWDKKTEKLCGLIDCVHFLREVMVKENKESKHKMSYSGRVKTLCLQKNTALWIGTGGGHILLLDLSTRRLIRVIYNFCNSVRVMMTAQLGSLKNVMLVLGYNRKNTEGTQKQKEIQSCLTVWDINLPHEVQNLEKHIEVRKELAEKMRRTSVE
T3 sequence (P50750 whole entry): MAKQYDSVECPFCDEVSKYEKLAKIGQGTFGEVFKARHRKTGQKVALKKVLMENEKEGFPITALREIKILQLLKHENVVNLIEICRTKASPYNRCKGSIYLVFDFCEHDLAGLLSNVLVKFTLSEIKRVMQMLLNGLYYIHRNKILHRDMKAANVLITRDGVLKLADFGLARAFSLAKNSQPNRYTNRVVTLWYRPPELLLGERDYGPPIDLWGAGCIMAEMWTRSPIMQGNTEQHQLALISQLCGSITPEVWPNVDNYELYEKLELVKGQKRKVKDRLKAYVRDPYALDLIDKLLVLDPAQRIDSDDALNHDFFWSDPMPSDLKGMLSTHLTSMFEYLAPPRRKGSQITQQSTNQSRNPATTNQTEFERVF
T3 sequence (O60563 whole entry partner): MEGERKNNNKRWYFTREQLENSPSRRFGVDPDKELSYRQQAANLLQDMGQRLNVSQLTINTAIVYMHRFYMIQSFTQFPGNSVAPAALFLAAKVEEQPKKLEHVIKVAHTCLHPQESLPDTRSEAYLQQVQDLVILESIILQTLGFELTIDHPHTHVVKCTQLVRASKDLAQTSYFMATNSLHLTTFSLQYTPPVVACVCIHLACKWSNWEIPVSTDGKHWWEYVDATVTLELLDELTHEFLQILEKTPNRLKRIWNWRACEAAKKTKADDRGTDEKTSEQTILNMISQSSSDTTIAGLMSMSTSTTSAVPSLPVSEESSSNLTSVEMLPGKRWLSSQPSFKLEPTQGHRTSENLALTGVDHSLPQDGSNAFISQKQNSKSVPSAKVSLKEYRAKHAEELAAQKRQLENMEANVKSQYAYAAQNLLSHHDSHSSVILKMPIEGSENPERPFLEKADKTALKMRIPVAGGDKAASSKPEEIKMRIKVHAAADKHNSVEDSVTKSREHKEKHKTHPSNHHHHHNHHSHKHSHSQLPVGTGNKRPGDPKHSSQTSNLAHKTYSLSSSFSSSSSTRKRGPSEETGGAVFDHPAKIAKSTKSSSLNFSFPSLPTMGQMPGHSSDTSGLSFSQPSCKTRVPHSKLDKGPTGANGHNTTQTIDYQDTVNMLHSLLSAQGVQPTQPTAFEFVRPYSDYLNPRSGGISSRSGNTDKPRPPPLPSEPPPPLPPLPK
T9 sequence (P30291 whole entry): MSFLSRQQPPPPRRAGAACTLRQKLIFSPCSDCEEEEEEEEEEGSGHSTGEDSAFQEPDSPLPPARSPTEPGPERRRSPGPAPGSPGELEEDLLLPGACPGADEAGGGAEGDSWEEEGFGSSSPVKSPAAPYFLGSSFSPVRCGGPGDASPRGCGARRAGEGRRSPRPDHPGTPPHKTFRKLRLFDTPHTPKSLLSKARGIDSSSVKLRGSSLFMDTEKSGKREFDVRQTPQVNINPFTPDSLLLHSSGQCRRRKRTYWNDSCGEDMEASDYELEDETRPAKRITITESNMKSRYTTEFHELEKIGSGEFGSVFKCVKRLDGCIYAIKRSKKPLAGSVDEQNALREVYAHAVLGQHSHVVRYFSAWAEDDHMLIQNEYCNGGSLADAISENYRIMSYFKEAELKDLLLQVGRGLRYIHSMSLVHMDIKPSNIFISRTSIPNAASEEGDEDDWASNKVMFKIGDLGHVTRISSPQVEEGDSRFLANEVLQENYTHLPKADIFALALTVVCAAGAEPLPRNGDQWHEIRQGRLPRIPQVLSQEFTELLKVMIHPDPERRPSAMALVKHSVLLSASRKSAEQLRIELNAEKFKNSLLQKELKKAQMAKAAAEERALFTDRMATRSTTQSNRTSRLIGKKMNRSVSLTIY
T6 sequence (P43250 whole entry): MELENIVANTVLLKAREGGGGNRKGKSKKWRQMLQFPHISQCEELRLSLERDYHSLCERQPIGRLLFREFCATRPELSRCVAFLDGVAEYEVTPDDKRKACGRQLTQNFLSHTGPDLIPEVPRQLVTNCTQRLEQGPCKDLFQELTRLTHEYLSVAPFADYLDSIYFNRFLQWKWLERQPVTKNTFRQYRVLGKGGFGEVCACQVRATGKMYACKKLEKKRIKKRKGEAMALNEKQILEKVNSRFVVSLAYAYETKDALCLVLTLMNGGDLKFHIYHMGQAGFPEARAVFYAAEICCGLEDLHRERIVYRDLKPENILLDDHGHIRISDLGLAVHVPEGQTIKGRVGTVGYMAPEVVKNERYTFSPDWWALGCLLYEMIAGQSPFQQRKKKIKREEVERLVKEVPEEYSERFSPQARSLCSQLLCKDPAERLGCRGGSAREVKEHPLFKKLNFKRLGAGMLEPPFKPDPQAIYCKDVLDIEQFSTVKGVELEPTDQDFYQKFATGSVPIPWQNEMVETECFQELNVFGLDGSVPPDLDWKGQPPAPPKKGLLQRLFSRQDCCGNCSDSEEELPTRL

Q: CC(C)(C)C(=O)N1N=CC[C@H]1c1ccccc1 [GSK′963] was tested. Which remaining activity at 10 µM (ARAF; [1]) did it give?
A: Its remaining activity at 10 µM is 93.7%.

Q: What about the remaining activity at 10 µM (ARAF; [2]) of the same compound?
A: The remaining activity at 10 µM was 94.6%.

Q: What about the remaining activity at 10 µM (ARAF; [3]) of the same compound?
A: Its remaining activity at 10 µM is 92.9%.

Q: And the remaining activity at 10 µM (Aurora C; [1])?
A: The remaining activity at 10 µM was 96.9%.

Q: And the remaining activity at 10 µM (Aurora C; [2])?
A: The remaining activity at 10 µM was 98.4%.

Q: And the remaining activity at 10 µM (Aurora C; [3])?
A: The remaining activity at 10 µM was 95.5%.

Q: What about the remaining activity at 10 µM (CDK9/cyclin T1; [1]) of the same compound?
A: Its remaining activity at 10 µM is 108%.

Q: And the remaining activity at 10 µM (CDK9/cyclin T1; [2])?
A: The remaining activity at 10 µM was 112%.

Q: What about the remaining activity at 10 µM (CDK9/cyclin T1; [3]) of the same compound?
A: Its remaining activity at 10 µM is 105%.

Q: What about the remaining activity at 10 µM (CK1a1; [1]) of the same compound?
A: The remaining activity at 10 µM was 103%.

Q: And the remaining activity at 10 µM (CK1a1; [2])?
A: Its remaining activity at 10 µM is 102%.

Q: What about the remaining activity at 10 µM (CK1a1; [3]) of the same compound?
A: Its remaining activity at 10 µM is 103%.

Q: What about the remaining activity at 10 µM (DCAMKL1; [1]) of the same compound?
A: The remaining activity at 10 µM was 92.5%.

Q: What about the remaining activity at 10 µM (DCAMKL1; [2]) of the same compound?
A: Its remaining activity at 10 µM is 96.2%.

Q: What about the remaining activity at 10 µM (DCAMKL1; [3]) of the same compound?
A: Its remaining activity at 10 µM is 88.8%.

Q: And the remaining activity at 10 µM (GRK6; [1])?
A: The remaining activity at 10 µM was 104%.

Q: What about the remaining activity at 10 µM (GRK6; [2]) of the same compound?
A: The remaining activity at 10 µM was 104%.

Q: What about the remaining activity at 10 µM (GRK6; [3]) of the same compound?
A: Its remaining activity at 10 µM is 103%.

Q: What about the remaining activity at 10 µM (LRRK2; [1]) of the same compound?
A: The remaining activity at 10 µM was 99.5%.

Q: And the remaining activity at 10 µM (LRRK2; [2])?
A: Its remaining activity at 10 µM is 102%.

Q: What about the remaining activity at 10 µM (LRRK2; [3]) of the same compound?
A: Its remaining activity at 10 µM is 97.1%.

Q: What about the remaining activity at 10 µM (TSSK3/STK22C; [1]) of the same compound?
A: The remaining activity at 10 µM was 131%.

Q: What about the remaining activity at 10 µM (TSSK3/STK22C; [2]) of the same compound?
A: Its remaining activity at 10 µM is 129%.

Q: What about the remaining activity at 10 µM (TSSK3/STK22C; [3]) of the same compound?
A: The remaining activity at 10 µM was 133%.

Q: What about the remaining activity at 10 µM (WEE1; [1]) of the same compound?
A: The remaining activity at 10 µM was 85.6%.

Q: What about the remaining activity at 10 µM (WEE1; [2]) of the same compound?
A: The remaining activity at 10 µM was 81.9%.

Q: What about the remaining activity at 10 µM (WEE1; [3]) of the same compound?
A: Its remaining activity at 10 µM is 89.2%.

Q: And the remaining activity at 10 µM (WNK3; [1])?
A: Its remaining activity at 10 µM is 100%.

Q: What about the remaining activity at 10 µM (WNK3; [2]) of the same compound?
A: The remaining activity at 10 µM was 97.5%.

Q: What about the remaining activity at 10 µM (WNK3; [3]) of the same compound?
A: The remaining activity at 10 µM was 103%.
